Source: paper PMC9851200, “Multiparameter phenotypic screening for endogenous TFEB and TFE3 translocation identifies novel chemical series modulating lysosome function” (Autophagy, 2022)

How the values were obtained:
Format in all cases: binding
[1] = molecular target: T1, kinases (KINOMEscan panel) (Homo sapiens, UniProt O15146); settings: MUSK; NEW KINOMEscan
T1 sequence (O15146 24-869): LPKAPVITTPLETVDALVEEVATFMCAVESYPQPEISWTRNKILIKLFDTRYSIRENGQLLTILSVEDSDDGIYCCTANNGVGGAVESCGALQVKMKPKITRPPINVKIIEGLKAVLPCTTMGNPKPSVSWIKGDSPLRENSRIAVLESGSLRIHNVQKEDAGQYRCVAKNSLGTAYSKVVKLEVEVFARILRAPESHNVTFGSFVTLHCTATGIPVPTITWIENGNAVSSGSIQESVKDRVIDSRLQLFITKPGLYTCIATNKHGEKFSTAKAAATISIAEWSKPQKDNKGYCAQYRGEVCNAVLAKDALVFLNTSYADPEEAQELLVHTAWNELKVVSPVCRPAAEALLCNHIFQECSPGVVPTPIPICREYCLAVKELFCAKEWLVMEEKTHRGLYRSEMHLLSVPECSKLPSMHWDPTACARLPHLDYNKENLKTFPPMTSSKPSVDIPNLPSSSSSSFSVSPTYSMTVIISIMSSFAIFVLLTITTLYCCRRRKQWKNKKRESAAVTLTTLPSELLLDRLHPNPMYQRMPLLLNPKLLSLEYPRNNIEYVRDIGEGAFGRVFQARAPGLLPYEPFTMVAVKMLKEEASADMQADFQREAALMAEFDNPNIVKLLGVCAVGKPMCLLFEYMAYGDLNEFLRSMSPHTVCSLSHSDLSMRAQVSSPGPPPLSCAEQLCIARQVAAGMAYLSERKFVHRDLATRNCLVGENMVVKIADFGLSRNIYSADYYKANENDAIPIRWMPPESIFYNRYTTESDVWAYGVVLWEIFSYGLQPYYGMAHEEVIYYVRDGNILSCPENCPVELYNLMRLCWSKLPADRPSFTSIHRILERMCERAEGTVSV

[2] = molecular target: kinases (KINOMEscan panel) (Homo sapiens, UniProt O75460); settings: NEW KINOMEscan
Sequence of kinases (KINOMEscan panel) (Homo sapiens, UniProt O75460) (O75460 19-977): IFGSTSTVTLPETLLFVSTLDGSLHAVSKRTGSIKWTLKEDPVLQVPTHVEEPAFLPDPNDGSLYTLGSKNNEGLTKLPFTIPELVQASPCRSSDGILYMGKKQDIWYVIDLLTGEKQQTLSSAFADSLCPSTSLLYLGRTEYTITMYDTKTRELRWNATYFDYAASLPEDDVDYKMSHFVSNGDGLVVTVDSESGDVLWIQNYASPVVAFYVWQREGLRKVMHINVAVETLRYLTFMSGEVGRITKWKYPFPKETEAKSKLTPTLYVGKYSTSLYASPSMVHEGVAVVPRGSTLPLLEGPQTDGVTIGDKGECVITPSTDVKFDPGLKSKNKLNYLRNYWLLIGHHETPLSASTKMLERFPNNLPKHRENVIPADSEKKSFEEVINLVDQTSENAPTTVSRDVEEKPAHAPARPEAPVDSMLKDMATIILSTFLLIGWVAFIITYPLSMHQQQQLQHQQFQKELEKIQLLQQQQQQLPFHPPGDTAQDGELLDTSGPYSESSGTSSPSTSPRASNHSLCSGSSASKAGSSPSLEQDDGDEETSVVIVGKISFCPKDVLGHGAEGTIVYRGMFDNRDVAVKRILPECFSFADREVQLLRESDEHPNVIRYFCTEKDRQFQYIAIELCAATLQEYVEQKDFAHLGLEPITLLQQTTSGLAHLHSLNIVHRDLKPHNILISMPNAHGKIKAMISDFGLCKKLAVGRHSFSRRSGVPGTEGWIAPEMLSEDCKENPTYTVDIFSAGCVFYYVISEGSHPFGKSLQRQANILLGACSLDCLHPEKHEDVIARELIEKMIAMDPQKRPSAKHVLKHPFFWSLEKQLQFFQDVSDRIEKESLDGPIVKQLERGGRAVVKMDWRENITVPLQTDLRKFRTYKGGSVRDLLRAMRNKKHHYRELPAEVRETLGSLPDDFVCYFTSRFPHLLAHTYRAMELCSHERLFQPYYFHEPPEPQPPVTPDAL

[3] = molecular target: kinases (KINOMEscan panel) (Homo sapiens, UniProt P00519); settings: NEW KINOMEscan
Sequence of kinases (KINOMEscan panel) (Homo sapiens, UniProt P00519) (P00519 whole entry): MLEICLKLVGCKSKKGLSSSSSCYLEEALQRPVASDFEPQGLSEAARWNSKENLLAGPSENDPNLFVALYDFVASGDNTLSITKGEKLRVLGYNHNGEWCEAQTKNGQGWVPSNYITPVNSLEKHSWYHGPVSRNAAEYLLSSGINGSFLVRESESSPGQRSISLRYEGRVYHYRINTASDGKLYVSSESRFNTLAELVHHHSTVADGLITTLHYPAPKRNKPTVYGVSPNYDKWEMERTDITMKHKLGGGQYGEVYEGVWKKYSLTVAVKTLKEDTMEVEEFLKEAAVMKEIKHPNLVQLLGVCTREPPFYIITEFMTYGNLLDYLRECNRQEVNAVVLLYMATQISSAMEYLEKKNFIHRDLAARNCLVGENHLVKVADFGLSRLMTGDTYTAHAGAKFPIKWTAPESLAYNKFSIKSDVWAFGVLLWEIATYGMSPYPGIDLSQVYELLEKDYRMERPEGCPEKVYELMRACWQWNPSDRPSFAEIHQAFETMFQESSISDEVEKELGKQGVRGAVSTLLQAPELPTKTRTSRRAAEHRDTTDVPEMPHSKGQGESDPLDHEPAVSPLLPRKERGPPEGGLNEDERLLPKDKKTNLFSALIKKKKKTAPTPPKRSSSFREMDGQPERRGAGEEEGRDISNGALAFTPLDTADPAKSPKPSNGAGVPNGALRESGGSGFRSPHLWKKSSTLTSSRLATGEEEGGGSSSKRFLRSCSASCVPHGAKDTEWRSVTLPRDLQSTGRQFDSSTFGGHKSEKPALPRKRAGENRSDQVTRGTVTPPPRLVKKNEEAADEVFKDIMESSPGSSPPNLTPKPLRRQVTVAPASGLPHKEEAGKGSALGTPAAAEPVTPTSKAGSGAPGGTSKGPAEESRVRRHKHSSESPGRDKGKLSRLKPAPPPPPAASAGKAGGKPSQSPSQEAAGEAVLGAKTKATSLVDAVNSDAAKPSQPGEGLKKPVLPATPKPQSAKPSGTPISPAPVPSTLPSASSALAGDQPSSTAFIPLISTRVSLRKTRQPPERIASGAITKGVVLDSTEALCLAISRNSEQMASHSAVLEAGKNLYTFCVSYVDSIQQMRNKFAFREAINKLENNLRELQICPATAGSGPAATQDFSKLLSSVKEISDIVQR

[4] = molecular target: kinases (KINOMEscan panel) (Homo sapiens, UniProt P04049); settings: RAF1; NEW KINOMEscan
Sequence of kinases (KINOMEscan panel) (Homo sapiens, UniProt P04049) (P04049 whole entry): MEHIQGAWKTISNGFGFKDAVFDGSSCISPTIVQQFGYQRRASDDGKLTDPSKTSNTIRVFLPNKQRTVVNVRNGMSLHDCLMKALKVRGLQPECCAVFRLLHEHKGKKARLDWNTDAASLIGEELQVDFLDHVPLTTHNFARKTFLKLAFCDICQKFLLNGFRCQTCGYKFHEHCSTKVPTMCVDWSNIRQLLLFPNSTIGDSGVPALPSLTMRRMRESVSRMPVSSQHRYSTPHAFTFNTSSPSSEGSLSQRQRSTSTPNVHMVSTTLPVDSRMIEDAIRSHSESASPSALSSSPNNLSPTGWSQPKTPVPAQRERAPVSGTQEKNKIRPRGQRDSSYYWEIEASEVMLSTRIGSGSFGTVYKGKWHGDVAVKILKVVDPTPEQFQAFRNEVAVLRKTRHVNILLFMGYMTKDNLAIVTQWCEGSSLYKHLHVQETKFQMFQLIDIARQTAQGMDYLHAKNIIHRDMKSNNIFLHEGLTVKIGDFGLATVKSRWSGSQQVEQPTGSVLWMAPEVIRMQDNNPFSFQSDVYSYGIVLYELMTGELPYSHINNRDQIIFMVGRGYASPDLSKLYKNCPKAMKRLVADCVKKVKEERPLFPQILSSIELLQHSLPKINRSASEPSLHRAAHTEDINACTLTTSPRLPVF

[5] = molecular target: kinases (KINOMEscan panel) (Homo sapiens, UniProt P06239); settings: LCK; NEW KINOMEscan
Sequence of kinases (KINOMEscan panel) (Homo sapiens, UniProt P06239) (P06239 whole entry): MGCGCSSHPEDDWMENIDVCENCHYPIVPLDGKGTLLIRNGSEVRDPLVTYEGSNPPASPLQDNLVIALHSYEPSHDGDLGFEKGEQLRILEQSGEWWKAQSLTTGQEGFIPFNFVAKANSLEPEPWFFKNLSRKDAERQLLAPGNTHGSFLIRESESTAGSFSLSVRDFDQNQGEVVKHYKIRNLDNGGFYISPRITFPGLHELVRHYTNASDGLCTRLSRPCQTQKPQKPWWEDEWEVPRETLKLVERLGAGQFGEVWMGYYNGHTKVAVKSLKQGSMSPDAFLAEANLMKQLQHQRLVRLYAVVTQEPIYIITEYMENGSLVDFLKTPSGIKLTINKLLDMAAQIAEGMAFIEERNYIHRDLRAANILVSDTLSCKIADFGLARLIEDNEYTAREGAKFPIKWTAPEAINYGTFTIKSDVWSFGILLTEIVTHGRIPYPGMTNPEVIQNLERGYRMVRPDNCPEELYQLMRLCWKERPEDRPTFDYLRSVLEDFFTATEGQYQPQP

[6] = molecular target: T2, kinases (KINOMEscan panel) (Homo sapiens, UniProt Q06418); settings: NEW KINOMEscan
T2 sequence (Q06418 41-890): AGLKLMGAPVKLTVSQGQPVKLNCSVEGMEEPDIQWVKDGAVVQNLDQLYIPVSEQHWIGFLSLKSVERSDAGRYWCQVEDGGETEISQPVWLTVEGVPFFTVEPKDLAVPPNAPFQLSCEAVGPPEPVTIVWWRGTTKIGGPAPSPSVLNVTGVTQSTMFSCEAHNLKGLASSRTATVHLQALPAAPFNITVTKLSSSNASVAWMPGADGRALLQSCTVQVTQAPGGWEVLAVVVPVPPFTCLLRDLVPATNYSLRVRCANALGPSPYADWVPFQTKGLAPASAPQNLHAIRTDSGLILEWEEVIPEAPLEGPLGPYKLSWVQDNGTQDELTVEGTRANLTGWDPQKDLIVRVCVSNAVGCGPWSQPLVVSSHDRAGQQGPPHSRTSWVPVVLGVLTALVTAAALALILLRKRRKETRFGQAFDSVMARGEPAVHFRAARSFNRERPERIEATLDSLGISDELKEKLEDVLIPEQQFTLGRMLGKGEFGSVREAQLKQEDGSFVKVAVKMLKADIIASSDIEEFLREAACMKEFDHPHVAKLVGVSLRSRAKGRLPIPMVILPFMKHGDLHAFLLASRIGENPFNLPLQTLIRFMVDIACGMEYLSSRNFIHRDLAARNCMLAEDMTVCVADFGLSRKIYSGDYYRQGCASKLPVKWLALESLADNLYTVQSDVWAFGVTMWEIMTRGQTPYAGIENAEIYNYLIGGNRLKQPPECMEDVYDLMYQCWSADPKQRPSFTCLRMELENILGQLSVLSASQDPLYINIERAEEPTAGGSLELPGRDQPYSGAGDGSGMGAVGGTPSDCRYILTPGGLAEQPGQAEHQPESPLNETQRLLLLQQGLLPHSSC

[7] = molecular target: T3, kinases (KINOMEscan panel) (Homo sapiens, UniProt Q08881); settings: kinase ITK; NEW KINOMEscan
T3 sequence (Q08881 1-620): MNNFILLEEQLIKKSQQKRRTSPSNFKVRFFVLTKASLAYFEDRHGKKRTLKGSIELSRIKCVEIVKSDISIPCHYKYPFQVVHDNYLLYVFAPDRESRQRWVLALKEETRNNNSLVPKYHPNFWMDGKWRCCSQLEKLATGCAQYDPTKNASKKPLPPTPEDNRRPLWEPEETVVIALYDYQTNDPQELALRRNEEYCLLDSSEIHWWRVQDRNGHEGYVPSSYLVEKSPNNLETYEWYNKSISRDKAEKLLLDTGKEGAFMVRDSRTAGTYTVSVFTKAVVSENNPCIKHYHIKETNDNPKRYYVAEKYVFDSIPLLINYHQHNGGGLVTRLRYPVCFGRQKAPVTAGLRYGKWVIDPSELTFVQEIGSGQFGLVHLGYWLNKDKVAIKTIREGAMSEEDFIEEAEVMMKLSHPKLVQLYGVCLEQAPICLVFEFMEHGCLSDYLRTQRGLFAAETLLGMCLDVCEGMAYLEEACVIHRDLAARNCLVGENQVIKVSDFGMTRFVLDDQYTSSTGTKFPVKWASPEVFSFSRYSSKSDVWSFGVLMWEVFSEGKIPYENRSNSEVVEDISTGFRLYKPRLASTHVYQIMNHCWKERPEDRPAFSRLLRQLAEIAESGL

[8] = molecular target: kinases (KINOMEscan panel) (Homo sapiens, UniProt Q13705); settings: kinase ACVR2B; NEW KINOMEscan
Sequence of kinases (KINOMEscan panel) (Homo sapiens, UniProt Q13705) (Q13705 19-512): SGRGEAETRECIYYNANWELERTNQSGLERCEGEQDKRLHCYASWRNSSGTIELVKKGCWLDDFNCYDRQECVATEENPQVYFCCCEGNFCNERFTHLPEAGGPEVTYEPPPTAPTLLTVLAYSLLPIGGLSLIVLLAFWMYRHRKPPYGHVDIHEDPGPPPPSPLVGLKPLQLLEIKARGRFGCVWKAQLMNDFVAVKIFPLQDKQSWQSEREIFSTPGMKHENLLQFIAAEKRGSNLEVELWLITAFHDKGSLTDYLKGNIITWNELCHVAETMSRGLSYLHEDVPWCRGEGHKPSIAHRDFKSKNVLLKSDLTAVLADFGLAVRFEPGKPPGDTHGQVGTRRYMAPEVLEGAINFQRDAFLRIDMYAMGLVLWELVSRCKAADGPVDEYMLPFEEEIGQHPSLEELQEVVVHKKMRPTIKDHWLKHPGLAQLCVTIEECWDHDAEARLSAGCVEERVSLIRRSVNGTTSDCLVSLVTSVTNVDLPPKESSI

[9] = molecular target: kinases (KINOMEscan panel) (Homo sapiens, UniProt Q9H422); settings: kinase HIPK3; NEW KINOMEscan
Sequence of kinases (KINOMEscan panel) (Homo sapiens, UniProt Q9H422) (Q9H422 whole entry): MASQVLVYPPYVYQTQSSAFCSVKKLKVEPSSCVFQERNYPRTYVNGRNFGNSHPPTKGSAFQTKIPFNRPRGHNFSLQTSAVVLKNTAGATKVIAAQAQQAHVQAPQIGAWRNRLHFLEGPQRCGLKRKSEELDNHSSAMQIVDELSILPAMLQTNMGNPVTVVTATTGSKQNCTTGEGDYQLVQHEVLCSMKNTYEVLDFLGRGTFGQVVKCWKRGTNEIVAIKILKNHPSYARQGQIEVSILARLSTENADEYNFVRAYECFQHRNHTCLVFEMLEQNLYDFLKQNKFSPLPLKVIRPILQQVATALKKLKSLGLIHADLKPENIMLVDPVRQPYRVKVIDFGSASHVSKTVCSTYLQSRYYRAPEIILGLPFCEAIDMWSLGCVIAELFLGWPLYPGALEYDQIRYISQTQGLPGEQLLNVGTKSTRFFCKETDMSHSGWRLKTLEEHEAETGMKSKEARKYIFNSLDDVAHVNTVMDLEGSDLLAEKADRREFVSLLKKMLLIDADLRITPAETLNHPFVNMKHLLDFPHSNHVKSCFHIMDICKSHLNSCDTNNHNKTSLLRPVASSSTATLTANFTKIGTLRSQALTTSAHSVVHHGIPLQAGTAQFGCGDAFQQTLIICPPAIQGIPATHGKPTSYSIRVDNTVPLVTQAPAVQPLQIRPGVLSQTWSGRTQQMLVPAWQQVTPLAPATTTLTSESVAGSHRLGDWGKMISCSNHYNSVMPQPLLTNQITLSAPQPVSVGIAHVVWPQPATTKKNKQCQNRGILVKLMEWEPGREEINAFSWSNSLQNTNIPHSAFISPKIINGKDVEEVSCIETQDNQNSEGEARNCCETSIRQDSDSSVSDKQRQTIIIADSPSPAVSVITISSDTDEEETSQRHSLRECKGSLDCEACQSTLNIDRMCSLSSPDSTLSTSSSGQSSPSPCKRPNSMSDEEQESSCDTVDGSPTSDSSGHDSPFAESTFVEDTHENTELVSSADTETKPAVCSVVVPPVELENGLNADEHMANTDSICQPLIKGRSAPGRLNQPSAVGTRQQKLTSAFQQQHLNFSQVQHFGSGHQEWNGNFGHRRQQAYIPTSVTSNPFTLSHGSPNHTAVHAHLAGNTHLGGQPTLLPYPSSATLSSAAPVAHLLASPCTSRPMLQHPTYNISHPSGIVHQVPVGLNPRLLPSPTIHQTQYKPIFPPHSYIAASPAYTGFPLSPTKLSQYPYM

[10] = molecular target: kinases (KINOMEscan panel) (Homo sapiens, UniProt Q9Y2H9); settings: MAST1; NEW KINOMEscan

Compound | KINOMEscan MUSK [1] | KINOMEscan ERN1 [2] | KINOMEscan ABL1-nonphosphorylated [3] | KINOMEscan ABL1-phosphorylated [3] | KINOMEscan RAF1 [4] | KINOMEscan LCK [5] | KINOMEscan TYRO3 [6] | KINOMEscan ITK [7] | KINOMEscan ACVR2B [8] | KINOMEscan HIPK3 [9] | KINOMEscan MAST1 [10]
Cc1cccc(-c2nc(Nc3ccc4nn(C)cc4c3)c3ccccc3n2)n1 [NK167] | 2 | 0 | 0 | 41 | 4 | 0 | 4 | 0 | 0 | 0 | 0
Cc1cccc(-c2nc(N(C)c3ccc4ncsc4c3)c3ccccc3n2)n1 [NK-161] | 0 | 11 | 0 | 29 | 0 | 2 | 21 | 14 | 22 | 0 | 0
